Reference: patent US20060167081A1, “Ep4 receptor agonists” (priority 2002, published 2006)

What was measured:
[1] = tested on: EP2 mRNA; test: EP2 mRNA in vivo in bone tissue (Northern blot); set-up: species or system rat
[2] = tested on: EP4 mRNA; test: EP4 mRNA levels in bone derived cell lines (Northern blot); assay type: cell-based, rat
Procedure: (§1) Cell Cultures—RP-1 periosteal cells are spontaneously immortalized from primary cultures of periosteal cells from tibae of 4-week old Sprague-Dawley rats and are cultured in DMEM (BRL, Gaithersburg, Md.) with 10% fetal bovine serum (JRP Biosciences, Lenexa, KS). […] RCT-1 and RCT-3 are clonal cell lines immortalized by SV40 large T antigen from cells released from fetal rat calvair by a cmbination collagenase/hyaluronidase digestion. RCT-1 cells, derived from cells released during the first 10 minutes of digestion (fraction I), are cultured in RPMI 1640 medium (BRL) with 10% fetal bovine serum and 0.4 mg/ml G418 (BRL). These cells differentiate and express osteoblastic features upon retinoic acid treatment. RCT-3 cells, immortalized from osteoblast-enriched fraction m cells, are cultured in F-12 medium (BRL) with 5% Fetal bovine serum and 0.4 mg/ml G418. TRAB-11 cells are also immortalized by SV40 large T antigen from adult rat tibia and are cultured in RPMI 1640 medium with 10% FBS and 0.4 mg/ml G418. ROS 17/12.8 rat osteosarcoma cells are cultured in F-12 containing 5% PBS. Osteoblast-enriched (fraction III) primary fetal rat calvaria cells are obtained by collagenase/hyaluronidase digestion of calvariae of 19 day-old rat fetuses. See Rodan et al., Growth stimulation of rat calvaria osteoblastic cells by acidic FGF, Endocrinology, 121, 1919-1923 (1987), which is incorporated by reference herein in its entirety. Cells are released during 30-50 minutes digestion (fraction III) and are cultured in F-12 medium containing 5% FBS. P815 (mouse mastocytoma) cells, cultured in Eagles MEM with 10% FBS, and NRK (normal rat kidney fibroblasts) cells, cultured in DMEM with 10% […], are used as positive and negative controls for the expression of EP4, respectively. See Abramovitz et al., Human prostanoid receptors: cloning and characterization. In: Samulesson B. et al. ed) Advances in prostaglandin, Thrombosznes and leukotriene research, vol. […]

[3] = tested on: EP2 mRNA; test: EP2 mRNA in RP-1 periosteal cells (Northern blot); assay type: cell-based, rat; conditions: RP-1 cells
Procedure: Cell Cultures—RP-1 periosteal cells are spontaneously immortalized from primary cultures of periosteal cells from tibae of 4-week old Sprague-Dawley rats and are cultured in DMEM (BRL, Gaithersburg, Md.) with 10% fetal bovine serum (JRP Biosciences, Lenexa, KS). […] RCT-1 and RCT-3 are clonal cell lines immortalized by SV40 large T antigen from cells released from fetal rat calvair by a cmbination collagenase/hyaluronidase digestion. RCT-1 cells, derived from cells released during the first 10 minutes of digestion (fraction I), are cultured in RPMI 1640 medium (BRL) with 10% fetal bovine serum and 0.4 mg/ml G418 (BRL). These cells differentiate and express osteoblastic features upon retinoic acid treatment. RCT-3 cells, immortalized from osteoblast-enriched fraction m cells, are cultured in F-12 medium (BRL) with 5% Fetal bovine serum and 0.4 mg/ml G418. TRAB-11 cells are also immortalized by SV40 large T antigen from adult rat tibia and are cultured in RPMI 1640 medium with 10% FBS and 0.4 mg/ml G418. ROS 17/12.8 rat osteosarcoma cells are cultured in F-12 containing 5% PBS. Osteoblast-enriched (fraction III) primary fetal rat calvaria cells are obtained by collagenase/hyaluronidase digestion of calvariae of 19 day-old rat fetuses. […]

[4] = tested on: EP4 mRNA; test: Localization of EP4 mRNA expression in bone tissue (in situ hybridization); assay type: in vivo, rat; conditions: single anabolic dose, rats
Procedure: Animal Procedures—For mRNA localization experiments, 5-week old Sprague-Dawley rats (Charles River) are euthanized by CO2, their tibiae and calvariae are excised, cleaned of soft tissues and frozen immediately in liquid nitrogen. For EP4 regulation experiments, 6-week old rats are given a single injection of either vehicle (7% ethanol in sterile water) or an anabolic dose of PGE2 (Cayman Chemical, Ann Arbor, Mich.), 3-6 mg/kg in the same vehicle) intraperitoneally. Animals are euthanized at several time points post-injection and their tibiae and calvariae, as well as samples from lung and kidney tissues are frozen in liquid nitrogen.
In-Situ Hybridization—Frozen tibiae are sectioned coronally at […] thickness and sections are mounted on charged slides (Probe On Plus, Fisher Scientific, Springfield, N.J.) and are kept at −70° C. until hybridization. cRNA probes are labeled with ^35S-UTPgS ([CN, Costa Mesa, CA) using a Riboprobe II kit (Promega Madison, Wis.). Hybridization is performed overnight at 50° C. […]
Localization of EP4 mRNA expression in bone tissue—In situ hybridization is used in order to localize cells expressing EP4 in bone. In control experiment (vehicle-injected) rats, low expression of EP4 is detected in bone marrow cells. […]

[5] = tested on: intracellular cAMP; test: Intracellular cAMP in osteoblastic cell lines; assay type: cell-based, rat
Procedure: as §1

[6] = tested on: EP4 mRNA; test: EP4 mRNA levels in vivo in bone tissue (Northern blot); set-up: species or system rat; conditions: tibial diaphysis, five-week-old male rats, 3-6 mg/Kg
Source text: Animal Procedures—For mRNA localization experiments, 5-week old Sprague-Dawley rats (Charles River) are euthanized by CO2, their tibiae and calvariae are excised, cleaned of soft tissues and frozen immediately in liquid nitrogen. […] Animals are euthanized at several time points post-injection and their tibiae and calvariae, as well as samples from lung and kidney tissues are frozen in liquid nitrogen.
Northern Blot Analysis—Total RNA is extracted from the tibial metaphysis or diaphysis and calvaria using a guanidinium isothiocyanate-phenol-chloroform method after pulverizing frozen bone samples by a tissue homogenizer. See P. Chomczynski et al., Single-step method of RNA isolation by acid guanidium thiocyanate-phenol-chloroform extraction., Analyt Biochem, 162, 156-159 (1987), which is incorporated by reference herein in its entirety. RNA samples ([…]) are separated on 0.9% agarose/formaldehyde gels and transferred onto nylon membranes (Boehringer Mannheim, Germany). Membranes are prehybridized in Hybrisol I (Oncor, Gaithersburg, Md.) and 0.5 mg/ml sonicated salmon sperm DNA (Boehringer) at 42° C. for 3 hours and are hybridized at 420C with rat EP2 and mouse EP4 cDNA probes labeled with [^32P]-dCTP (Amersham, Buckinghamshire, UK) by random priming using the rediprime kit (Amersham). […]

Q: CCCCC[C@H](O)/C=C/[C@H]1[C@H](O)CC(=O)[C@@H]1C/C=C\CCCC(=O)O [PGE2] was tested. Which “induction of EP2 mRNA” value [1] did it give?
A: does not induce

Q: What about the “EP4 mRNA levels” value ([2]; RCT-3 cells) of the same molecule?
A: no effect

Q: And the “EP4 mRNA levels” value ([2]; RP-1 periosteal cells, 10^-6 M)?
A: rapidly increases

Q: And the “time of peak of EP4 mRNA levels after treatment” value ([2]; RP-1 periosteal cells, 10^-6 M)?
A: 2 h

Q: And the “induction of EP2 mRNA” value [3]?
A: does not induce

Q: And the “expression of EP4 in bone marrow cells” value [4]?
A: increased

Q: And the “effect on intracellular cAMP” value ([5]; RCT-3 cells)?
A: markedly induced

Q: And the “effect on intracellular cAMP” value ([5]; ROS 17/2.8 cells)?
A: no effect

Q: And the “effect on intracellular cAMP” value ([5]; TRAB-11 cells)?
A: markedly induced

Q: What about the “time of peak of EP4 mRNA levels after injection” value [6] of the same molecule?
A: 2 h

Q: And the “EP4 mRNA levels” value ([6]; systemic)?
A: rapidly increased
